Laboratory results reported in patent US11186577B2, “Vasopressin receptor antagonists and products and methods related thereto” (BlackThorn Therapeutics, Inc., priority 2017, dated 2021).
Where two headings read alike, the source gives them in different places.

Experiments:
MDR1-MDCK cells = experiment: MDR1-MDCK effective efflux assay (Transwell, 10 μM, 1 hour), MDR1-MDCK cells; format: in vitro ADME; conditions: for Papp AB MDR1: MDR1-MDCK cells, apical to basolateral (A>B), 10 μM, 1 hour; for MDR1 EER / MDR1 ER: MDCK-MDR1
Method: (§1) The MDR1-MDCK effective efflux assay was performed as described in the BioFocus Standard Operating Procedure, ADME-SOP-56. Both wild-type (WT) and MDR1-MDCK cells (Solvo Biotechnology) were seeded onto 24-well Transwell plates at 2.35×10^5 cells per well and used in confluent monolayers after a 3 day culture at 37° C. under 5% CO2. For both cell types, test and control compounds (propranolol, vinblastine) were added (10 μM, 0.1% DMSO final, n=2) to donor compartments of the Transwell plate assembly in assay buffer (Hanks balanced salt solution supplemented with 25 mM HEPES, adjusted to pH 7.4) for both apical to basolateral (A>B) and basolateral to apical (B>A) measurements. Incubations were performed at 37° C., with samples removed from both donor and acceptor chambers at T=0 and 1 hour and compound analysed by mass spectrometry (LC-MS/MS) including an analytical internal standard.
(§2) Where V is the volume of each Transwell compartment (apical 125 basolateral 600 and concentrations are the relative MS responses for compound (normalized to internal standard) in the donor chamber before incubation and acceptor chamber at the end of the incubation. Area=area of cells exposed for drug transfer (0.33 cm2).
(§3) Efflux ratios (Papp B>A/Papp A>B) were calculated for each compound from the mean Papp values in each direction for both wild-type and MDR1-MDCK cells.
(§4) In order to confirm the involvement of MDR1 in any efflux seen, an “effective efflux ratio” (EER) was calculated by comparing compound efflux ratios (ER) in the two cell types, i.e. EER=ER(MDR1−MDCK)/ER(wild-type MDCK)
(§5) This ratio illustrates the effect of the over-expressed MDR1 normalised for the background movement of compound through the wild-type cells.
(§6) Lucifer Yellow (LY) was added to the apical buffer in all wells to assess viability of the cell layer. Compound recovery from the wells was determined from MS responses (normalized to internal standard) in donor and acceptor chambers at the end of incubation compared to response in the donor chamber pre-incubation.

[1] = tested on: wild-type (WT) MDCK cells; experiment: MDR1-MDCK effective efflux assay (Transwell, 10 μM, 1 hour), wild-type MDCK cells; format: in vitro ADME; conditions: for Papp AB WT: wild-type MDCK cells, apical to basolateral (A>B), 10 μM, 1 hour; for WT ER: MDCK
Method: as §1, §2, §3, §4, §5, §6

[2] = biological target: human Arginine Vasopressin Receptor 1a (AVPR1a) (Homo sapiens (Human), UniProt P37288); experiment: Vasopressin V1A receptor antagonist assay (AVP-evoked calcium, FLIPR, CHO-AVPR1a cells); format: cell-based; conditions: read-out: V1a IC50
Outline: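 CHO cells expressing human AVPR1a, Calcium-6 dye loaded 60-90 min, preincubated with compound 15 min at 37° C., then challenged with AVP at its daily-determined EC80. FLIPR fluorescence; 10-point 1:3 series from 3 μM, duplicates.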

[3] = biological target: human Oxytocin Receptor (hOTR) (Homo sapiens (Human), UniProt P30559); experiment: Oxytocin receptor antagonist assay (oxytocin-evoked calcium, FLIPR, CHEM-1-hOTR cells); format: cell-based; conditions: read-out: OT IC50
Method: This assay was performed in CHEM-1 cells expressing the human Oxytocin Receptor (hOTR) to determine the inhibitory effect of the compounds of the invention on the human Oxytocin receptor. Oxytocin evokes an increase in intracellular calcium in CHEM-1-hOTR cells which is measured in a fluorescence assay on the FLIPR^TETRA using calcium sensitive dyes. Test compounds were assessed for their ability to affect the magnitude of the response to oxytocin, with antagonists showing a concentration-dependent reduction in the oxytocin-mediated fluorescence.
CHEM-1-hOTR ready was used to assay frozen cells (Eurofins #HTS090RTA) which are supplied with a proprietary Media Component.
Cells were thawed in a 37° C. water bath and diluted with the supplied Media Component to a final volume of 10 ml. The cell suspension was centrifuged at 1000 rpm for 3 min at room temperature and the supernatant was discarded. The cell pellet was resuspended in Media Component (10.5 ml) and the cells (25 μL) were dispensed into a poly-D-lysine coated black, clear bottomed, 384-well plate. The plates were incubated overnight at 37° C., 5% CO2.
At the start of each assay day the potency of oxytocin was assessed and an EC80 concentration was determined for subsequent compound profiling. Assays were performed using a two-step addition protocol on the FLIPR^TETRA; first addition of 5 μl of control or test compound at 10× final in assay buffer with 15 min incubation at 37° C., 5% CO2 followed by 10 μl of oxytocin at 6× final concentration in assay buffer. Changes in fluorescence were monitored for 3 min after both additions on the FLIPR^TETRA using 470-495 nm excitation and 515-575 nm emission wavelengths. The assay buffer consisted of HBSS (+Ca/+Mg) supplemented with 20 mM HEPES, and for the preparation of the oxytocin agonist only, 0.1% w/v bovine serum albumin. The assay was initiated by the removal of growth media from the cells and replaced with 45 μl of Calcium-6 dye (Molecular Devices) prepared at 1× in assay buffer. Cells were loaded with dye for 60-90 min at 37° C., 5% CO2 before initiation of the FLIPR^TETRA protocol. […] For compound profiling, test compounds were first serially diluted in DMSO (10-point curve, 1:3 dilutions) then diluted 33.3-fold in assay buffer prior to addition to the dye loaded cells on the FLIPR^TETRA. At the end of the incubation period 10 μl of oxytocin in assay buffer containing 0.1% BSA was added at the previously determined EC80 concentration.
In-plate controls for the assay include a L-368,899 concentration-response curve as the reference OTR antagonist and an oxytocin concentration-response curve to confirm the reproducibility of the EC80 used for the compound challenge.

MDR1 (P-glycoprotein) = experiment: MDR1-MDCK effective efflux assay (Transwell, 10 μM, 1 hour), MDR1-MDCK cells; format: in vitro ADME; conditions: dog
Method: as §1, §2, §3, §4, §5, §6

[4] = MDR1-MDCK effective efflux assay (Transwell, 10 μM, 1 hour), wild-type MDCK cells; format: in vitro ADME; conditions: dog, MDCK
Method: as §1, §2, §3, §4, §5, §6

[5] = MDCK-MDR1, pH 7.4, Papp AB MDR1
[6] = MDCK-MDR1, pH 7.4, MDR1-MDCK cells, apical to basolateral (A>B), 10 μM, 1 hour, read-out: Papp AB MDR1
[7] = pH 7.4, wild-type MDCK cells, apical to basolateral (A>B), 10 μM, 1 hour, read-out: Papp AB WT

human Oxytocin Receptor (hOTR), sequence (P30559 whole entry): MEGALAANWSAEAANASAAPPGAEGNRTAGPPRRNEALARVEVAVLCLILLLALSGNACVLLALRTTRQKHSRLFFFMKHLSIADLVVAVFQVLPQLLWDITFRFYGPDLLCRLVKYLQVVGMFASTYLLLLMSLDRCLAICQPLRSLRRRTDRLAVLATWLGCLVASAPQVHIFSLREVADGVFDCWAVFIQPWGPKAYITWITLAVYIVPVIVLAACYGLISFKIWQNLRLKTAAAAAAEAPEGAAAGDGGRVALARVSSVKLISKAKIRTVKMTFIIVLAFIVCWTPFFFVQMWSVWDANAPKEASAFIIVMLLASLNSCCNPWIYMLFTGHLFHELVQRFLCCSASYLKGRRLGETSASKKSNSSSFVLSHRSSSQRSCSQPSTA
human Arginine Vasopressin Receptor 1a (AVPR1a), sequence (P37288 whole entry): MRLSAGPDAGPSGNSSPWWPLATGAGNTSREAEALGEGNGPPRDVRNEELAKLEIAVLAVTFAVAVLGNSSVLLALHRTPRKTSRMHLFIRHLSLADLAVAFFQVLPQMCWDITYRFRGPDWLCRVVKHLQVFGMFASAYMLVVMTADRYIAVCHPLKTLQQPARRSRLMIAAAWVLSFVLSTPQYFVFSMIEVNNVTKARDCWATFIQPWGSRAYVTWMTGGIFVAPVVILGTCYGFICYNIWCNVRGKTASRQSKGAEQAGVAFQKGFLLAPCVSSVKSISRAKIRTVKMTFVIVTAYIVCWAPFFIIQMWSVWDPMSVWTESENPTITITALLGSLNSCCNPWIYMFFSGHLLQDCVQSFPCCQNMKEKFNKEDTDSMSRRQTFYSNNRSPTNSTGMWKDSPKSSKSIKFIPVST

SMILES | Papp AB MDR1 (MDR1-MDCK cells) | Papp AB WT [1] | IC50 [2] | IC50 [3] | MDR1 EER (MDR1-MDCK cells) | MDR1 ER (MDR1-MDCK cells) | Papp A→B at 1 h, 10 μM (MDR1 (P-glycoprotein); [5]) | WT ER [1] | Papp A→B at 1 h, 10 μM ([4]; pH 7.4, Papp AB WT) | Papp A→B at 1 h, 10 μM (MDR1 (P-glycoprotein); [6]) | Papp A→B at 1 h, 10 μM [4, 7]
CCOC(=O)N1Cc2cc(Cl)ccc2-n2c(C3CC4(C3)CN(c3ncc(F)cn3)C4)nnc2C1C (single isomer, unassigned) [Cpd 172A] | ++++ ((++++) denotes >20 (10^-6 cm/sec)) | ++++ ((++++) denotes >20 (10^-6 cm/sec)) | < 100 nM |  |  |  |  |  |  |  | 
COC(=O)N1Cc2cc(Cl)ccc2-n2c(C3CC4(C3)CN(c3ccncn3)C4)nnc2C1C (single isomer, unassigned) [Cpd 184A] |  | ++++ ((++++) denotes >20 (10^-6 cm/sec)) | < 100 nM |  |  |  |  |  |  |  | 
CC1c2nnc(C3CC4(C3)CN(c3ncc(F)cn3)C4)n2-c2ccc(Cl)cc2CN1C(=O)OC(CF)CF (single isomer, unassigned) [Cpd 194A] |  | ++++ ((++++) denotes >20 (10^-6 cm/sec)) | < 100 nM |  |  |  |  |  |  |  | 
CC1c2nnc(C3CC4(C3)CN(c3ncccn3)C4)n2-c2ccc(Cl)cc2CN1C(=O)OC(CF)CF (single isomer, unassigned) [Cpd 202B] | + ((+) denotes an apparent permeability <7 (10^-6 cm/sec)) | ++++ ((++++) denotes >20 (10^-6 cm/sec)) | > 1000 nM | > 1000 nM |  |  |  |  |  |  | 
COc1ccc2c(c1)CN(C)Cc1nnc(C3CC4(C3)CN(c3cnccn3)C4)n1-2 [compound 19] |  |  |  |  | + | + | < 7 ×10⁻⁶ cm/s | +++ | > 20 ×10⁻⁶ cm/s |  | 
CN1Cc2cc(Cl)ccc2-n2c(nnc2C2CC3(C2)CN(C(=O)C2(F)CC2)C3)C1 [compound 36] |  |  | < 100 nM |  | + | + | < 7 ×10⁻⁶ cm/s | ++ | 10 to 20 ×10⁻⁶ cm/s |  | 
COC(=O)N1Cc2cc(Cl)ccc2-n2c(nnc2C2CC3(C2)CN(c2cccnn2)C3)C1 [compound 75] |  |  | < 100 nM |  | + | + | < 7 ×10⁻⁶ cm/s |  | 10 to 20 ×10⁻⁶ cm/s |  | 
COC(=O)N1Cc2cc(Cl)ccc2-n2c(nnc2C2CC3(C2)CN(c2cccc(C#N)n2)C3)C1 [compound 91, methyl 8-chloro-1-(2-(6-cyanopyridin-2-yl)-2-azaspiro[3.3]heptan-6-yl)-4H-benzo[f][1,2,4]triazolo[4,3-a][1,4]diazepine-5(6H)-carboxylate] |  |  | < 100 nM | 500 to 1000 nM |  |  |  |  |  | < 7 ×10⁻⁶ cm/s | > 20 ×10⁻⁶ cm/s
COC(=O)N1Cc2cc(Cl)ccc2-n2c(nnc2C2CC3(C2)CN(c2ncccn2)C3)C1 [compound 95] |  |  | < 100 nM | 500 to 1000 nM |  |  |  |  |  | < 7 ×10⁻⁶ cm/s | > 20 ×10⁻⁶ cm/s
CC(C)OC(=O)N1Cc2cc(Cl)ccc2-n2c(nnc2C2CC3(C2)CN(c2ccc(F)cn2)C3)C1 [compound 111] |  |  | < 100 nM | 100 to 500 nM |  |  |  |  |  | > 20 ×10⁻⁶ cm/s | > 20 ×10⁻⁶ cm/s
COC(=O)N1Cc2cc(Cl)ccc2-n2c(nnc2C2CC3(C2)CN(c2cccc(C)n2)C3)C1 [compound 115] |  |  | < 100 nM |  | + | + | 10 to 20 ×10⁻⁶ cm/s | +++ | > 20 ×10⁻⁶ cm/s |  | 
O=C(C1CC1)N1CC2(CC(c3nnc4n3-c3ccc(Cl)cc3CN(C(=O)C(F)(F)F)C4)C2)C1 [compound 137] |  |  | < 100 nM |  | + | + | < 7 ×10⁻⁶ cm/s | + | < 7 ×10⁻⁶ cm/s |  | 
CC(C)OC(=O)N1Cc2cc(Cl)ccc2-n2c(nnc2C2CC3(C2)CN(C(=O)C2(F)CC2)C3)C1 [compound 147] |  |  | < 100 nM |  | + | + | < 7 ×10⁻⁶ cm/s | + | < 7 ×10⁻⁶ cm/s |  | 
O=C(C1COC1)N1Cc2cc(Cl)ccc2-n2c(nnc2C2CC3(C2)CN(c2ccc(F)cn2)C3)C1 [compound 160] |  |  | < 100 nM |  | + | + | < 7 ×10⁻⁶ cm/s | + | < 7 ×10⁻⁶ cm/s |  | 
COC(=O)N1Cc2cc(Cl)ccc2-n2c(nnc2C2CC3(C2)CN(C(=O)C2CC2)C3)C1 [compound 162] |  |  | < 100 nM |  | + | + | < 7 ×10⁻⁶ cm/s | + | < 7 ×10⁻⁶ cm/s |  | 
CC(C)OC(=O)N1Cc2cc(Cl)ccc2-n2c(C3CC4(C3)CN(c3ccc(F)cn3)C4)nnc2C1C (stereo not shown) [compound 163] |  |  | < 100 nM |  | +++ | +++ | > 20 ×10⁻⁶ cm/s | ++++ | > 20 ×10⁻⁶ cm/s |  | 
CC1c2nnc(C3CC4(C3)CN(c3ccc(F)cn3)C4)n2-c2ccc(Cl)cc2CN1C(=O)C(F)F (stereo not shown) [compound 176] |  |  | < 100 nM |  | + | + | 7 to 10 ×10⁻⁶ cm/s | ++++ | > 20 ×10⁻⁶ cm/s |  | 
CC1c2nnc(C3CC4(C3)CN(c3ccc(F)cn3)C4)n2-c2ccc(Cl)cc2CN1C (stereo not shown) [compound 179] |  |  | 100 to 500 nM |  | ++ | + | > 20 ×10⁻⁶ cm/s | +++ | > 20 ×10⁻⁶ cm/s |  | 
CC(C)OC(=O)N1Cc2cc(Cl)ccc2-n2c(nnc2C2CC3(C2)CN(c2ncncc2F)C3)C1 [compound 185] |  |  | < 100 nM | 500 to 1000 nM |  |  |  |  |  | > 20 ×10⁻⁶ cm/s | > 20 ×10⁻⁶ cm/s
CC1c2nnc(C3CC4(C3)CN(c3ccc(F)cn3)C4)n2-c2ccc(Cl)cc2CN1C(=O)OC1CCC1 (stereo not shown) [compound 195] |  |  |  |  | ++++ | +++ | > 20 ×10⁻⁶ cm/s | +++ | 10 to 20 ×10⁻⁶ cm/s |  | 
CC1c2nnc(C3CC4(C3)CN(c3ncccn3)C4)n2-c2ccc(Cl)cc2CN1C(=O)OC(CF)CF (stereo not shown) [compound 202] |  |  |  |  | + | + | < 7 ×10⁻⁶ cm/s | ++++ | > 20 ×10⁻⁶ cm/s |  | 
CC1c2nnc(C3CC4(C3)CN(c3ccc(F)cn3)C4)n2-c2ccc(Cl)cc2CN1C(=O)OC(CF)CF (stereo not shown) [compound 203] |  |  |  |  | +++ | ++ | 10 to 20 ×10⁻⁶ cm/s | +++ | > 20 ×10⁻⁶ cm/s |  | 
